Values joined by “and” are separate entries in the source; they are usually repeats but may differ in a detail not shown here. Equal entries are not always repeated.
What was measured:
[1] = target: T1, Tyrosine-protein phosphatase non-receptor type 1 (Homo sapiens, UniProt P18031); assay: Inhibition of Protein-tyrosine phosphatase 1B in 2 mM DTT
T1 sequence (P18031 whole entry): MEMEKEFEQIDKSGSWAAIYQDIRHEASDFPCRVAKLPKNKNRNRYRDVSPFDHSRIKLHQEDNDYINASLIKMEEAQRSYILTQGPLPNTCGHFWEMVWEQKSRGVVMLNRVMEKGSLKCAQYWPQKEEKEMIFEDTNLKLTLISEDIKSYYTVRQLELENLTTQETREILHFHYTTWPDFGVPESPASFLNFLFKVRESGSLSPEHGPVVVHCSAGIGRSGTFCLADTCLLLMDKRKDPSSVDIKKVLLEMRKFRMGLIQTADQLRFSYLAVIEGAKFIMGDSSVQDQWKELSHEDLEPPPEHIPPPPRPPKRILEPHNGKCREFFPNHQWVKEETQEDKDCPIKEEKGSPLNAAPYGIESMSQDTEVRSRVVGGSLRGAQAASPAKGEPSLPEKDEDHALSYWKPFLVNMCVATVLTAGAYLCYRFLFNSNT

[2] = target: T1, Tyrosine-protein phosphatase non-receptor type 1; assay: Inhibition of Protein-tyrosine phosphatase 1B in 300 nM DTT
[3] = target: Receptor-type tyrosine-protein phosphatase alpha (Homo sapiens, UniProt P18433); assay: In vitro inhibitory concentration required against Protein-tyrosine phosphatase alpha in the presence of 300 nM DTT
[4] = target: Receptor-type tyrosine-protein phosphatase F (Homo sapiens, UniProt P10586); assay: In vitro inhibitory concentration required against Leukocyte antigen related receptor phosphatase (LAR) in the presence of 300 nM DTT
[5] = target: T2, Tyrosine-protein phosphatase non-receptor type 11 (Homo sapiens, UniProt Q06124); assay: In vitro inhibitory concentration required against Tyrosine phosphatase SHP-2 in the presence of 300 nM DTT
T2 sequence (Q06124 whole entry): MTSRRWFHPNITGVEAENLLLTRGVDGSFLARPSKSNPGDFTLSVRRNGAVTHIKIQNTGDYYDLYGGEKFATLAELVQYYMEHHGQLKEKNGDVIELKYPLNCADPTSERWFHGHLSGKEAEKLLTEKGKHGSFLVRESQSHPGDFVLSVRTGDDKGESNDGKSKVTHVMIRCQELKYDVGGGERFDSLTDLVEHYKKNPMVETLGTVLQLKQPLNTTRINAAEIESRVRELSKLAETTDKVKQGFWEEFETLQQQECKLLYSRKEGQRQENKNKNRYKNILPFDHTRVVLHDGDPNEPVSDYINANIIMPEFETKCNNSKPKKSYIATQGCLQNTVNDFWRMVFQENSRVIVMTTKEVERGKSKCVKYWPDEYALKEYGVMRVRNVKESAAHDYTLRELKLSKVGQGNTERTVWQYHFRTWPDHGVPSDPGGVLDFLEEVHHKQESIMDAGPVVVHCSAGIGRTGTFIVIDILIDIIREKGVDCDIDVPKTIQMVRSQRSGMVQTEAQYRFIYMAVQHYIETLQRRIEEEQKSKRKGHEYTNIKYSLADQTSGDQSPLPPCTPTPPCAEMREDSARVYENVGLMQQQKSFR

[6] = test system: Mus musculus; assay: Percent change in blood glucose in male ob/ob mice dosed at 5 mg/kg orally evaluated 2 hr postdose on day 5; type: functional; conditions: route oral
[7] = Steady state volume of distribution was determined in mice; type: ADME, organism-based; conditions: mouse, in vivo; read-out: Vss
[8] = Oral availability at 50 mg/kg po in male mice; type: ADME, organism-based; design: dose 50 mg/kg, route oral; conditions: mouse, in vivo
[9] = Half life in mice; type: ADME, organism-based; conditions: mouse, in vivo
[10] = Plasma clearance in mice; type: ADME, organism-based; conditions: mouse
[11] = Cmax value was determined; type: ADME, organism-based; conditions: mouse, in vivo

Chain of Receptor-type tyrosine-protein phosphatase alpha (P18433 whole entry): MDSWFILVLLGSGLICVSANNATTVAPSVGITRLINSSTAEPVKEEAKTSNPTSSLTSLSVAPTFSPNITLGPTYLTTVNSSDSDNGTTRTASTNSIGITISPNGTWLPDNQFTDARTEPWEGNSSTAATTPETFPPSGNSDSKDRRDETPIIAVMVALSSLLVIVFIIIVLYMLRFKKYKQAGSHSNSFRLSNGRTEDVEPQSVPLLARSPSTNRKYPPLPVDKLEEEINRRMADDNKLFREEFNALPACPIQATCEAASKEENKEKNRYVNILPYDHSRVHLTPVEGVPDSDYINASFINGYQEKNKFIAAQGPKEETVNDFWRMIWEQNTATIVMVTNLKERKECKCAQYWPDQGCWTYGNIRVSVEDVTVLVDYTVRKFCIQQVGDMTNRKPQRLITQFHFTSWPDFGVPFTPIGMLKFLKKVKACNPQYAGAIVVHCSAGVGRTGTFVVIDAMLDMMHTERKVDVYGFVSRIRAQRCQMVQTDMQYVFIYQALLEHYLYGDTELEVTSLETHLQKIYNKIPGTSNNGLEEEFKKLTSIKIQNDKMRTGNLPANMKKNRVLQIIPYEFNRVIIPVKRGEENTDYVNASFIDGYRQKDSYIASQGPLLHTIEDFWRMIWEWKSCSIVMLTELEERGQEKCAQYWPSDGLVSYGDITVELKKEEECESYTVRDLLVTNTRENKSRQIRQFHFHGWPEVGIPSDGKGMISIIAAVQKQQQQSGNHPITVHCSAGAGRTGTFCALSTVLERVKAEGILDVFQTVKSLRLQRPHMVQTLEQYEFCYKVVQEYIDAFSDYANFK
Chain of Receptor-type tyrosine-protein phosphatase F (P10586 whole entry): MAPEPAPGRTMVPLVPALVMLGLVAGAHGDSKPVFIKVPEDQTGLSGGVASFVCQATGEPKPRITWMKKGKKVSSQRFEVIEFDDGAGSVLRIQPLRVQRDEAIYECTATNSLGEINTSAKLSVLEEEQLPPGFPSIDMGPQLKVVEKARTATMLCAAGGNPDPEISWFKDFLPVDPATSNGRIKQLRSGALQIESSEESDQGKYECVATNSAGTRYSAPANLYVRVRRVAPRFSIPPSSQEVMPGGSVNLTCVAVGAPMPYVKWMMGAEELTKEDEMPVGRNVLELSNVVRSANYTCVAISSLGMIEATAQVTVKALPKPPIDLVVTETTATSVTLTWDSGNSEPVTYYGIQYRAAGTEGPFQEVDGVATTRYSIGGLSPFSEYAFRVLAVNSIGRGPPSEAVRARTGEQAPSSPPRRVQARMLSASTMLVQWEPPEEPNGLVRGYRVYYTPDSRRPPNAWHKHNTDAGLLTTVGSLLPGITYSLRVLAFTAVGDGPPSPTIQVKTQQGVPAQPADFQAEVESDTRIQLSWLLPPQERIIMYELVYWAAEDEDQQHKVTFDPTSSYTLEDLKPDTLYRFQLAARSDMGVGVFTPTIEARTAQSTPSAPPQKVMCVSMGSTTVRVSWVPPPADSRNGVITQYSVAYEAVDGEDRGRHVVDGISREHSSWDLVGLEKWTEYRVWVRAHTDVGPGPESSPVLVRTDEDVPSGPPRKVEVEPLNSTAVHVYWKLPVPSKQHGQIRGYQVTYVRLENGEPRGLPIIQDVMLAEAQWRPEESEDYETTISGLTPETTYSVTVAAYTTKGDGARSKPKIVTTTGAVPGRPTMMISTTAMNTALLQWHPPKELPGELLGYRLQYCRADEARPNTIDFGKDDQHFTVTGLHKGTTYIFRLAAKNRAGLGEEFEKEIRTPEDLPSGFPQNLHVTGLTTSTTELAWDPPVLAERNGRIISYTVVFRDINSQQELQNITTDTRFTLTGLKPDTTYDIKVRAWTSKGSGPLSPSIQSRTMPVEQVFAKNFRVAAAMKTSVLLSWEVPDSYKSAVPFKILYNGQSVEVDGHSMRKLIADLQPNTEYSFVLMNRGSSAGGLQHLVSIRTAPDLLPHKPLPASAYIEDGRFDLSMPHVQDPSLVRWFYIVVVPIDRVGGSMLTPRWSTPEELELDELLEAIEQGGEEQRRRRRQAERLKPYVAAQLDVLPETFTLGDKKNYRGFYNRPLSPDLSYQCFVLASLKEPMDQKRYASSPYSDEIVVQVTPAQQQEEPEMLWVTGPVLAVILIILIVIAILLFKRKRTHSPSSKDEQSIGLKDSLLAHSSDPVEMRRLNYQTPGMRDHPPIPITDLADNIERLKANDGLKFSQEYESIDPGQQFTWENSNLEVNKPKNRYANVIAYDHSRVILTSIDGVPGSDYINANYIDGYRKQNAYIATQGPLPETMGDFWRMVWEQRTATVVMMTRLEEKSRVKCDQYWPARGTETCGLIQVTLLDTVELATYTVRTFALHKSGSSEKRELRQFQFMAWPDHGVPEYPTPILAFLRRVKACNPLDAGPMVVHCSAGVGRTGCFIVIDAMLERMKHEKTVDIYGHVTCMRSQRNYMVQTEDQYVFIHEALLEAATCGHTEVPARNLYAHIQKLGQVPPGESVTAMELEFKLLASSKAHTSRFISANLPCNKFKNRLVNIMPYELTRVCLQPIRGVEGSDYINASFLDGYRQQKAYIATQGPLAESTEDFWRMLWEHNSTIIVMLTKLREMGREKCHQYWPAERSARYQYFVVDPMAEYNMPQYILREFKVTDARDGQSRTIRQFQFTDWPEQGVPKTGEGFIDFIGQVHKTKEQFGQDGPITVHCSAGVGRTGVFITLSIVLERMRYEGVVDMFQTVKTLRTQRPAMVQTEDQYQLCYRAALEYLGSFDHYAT

| IC50 [1] [µM] | IC50 [2] | Structure (SMILES) | further results |
| --- | --- | --- | --- |
| > 100 | > 100 µM | Nc1nc(N)c2nc(CN3CCN(c4ccccc4)CC3)nnc2n1 | – |
| > 100 | 29 µM and 12 µM | CCN(CC)Cc1nnc2nc(N)nc(N)c2n1 | IC50 [3]: 28 µM; IC50 [4]: 28 µM; IC50 [5]: 14 µM |
| 40 | 4.5 µM | Nc1nc(N)c2nc(CN3CCN(Cc4cccc5ccccc45)CC3)nnc2n1 | – |
| 98 | 6.2 µM and 8 µM | Nc1nc(N)c2nc(CN3CCN(Cc4ccccc4)CC3)nnc2n1 | IC50 [3]: 24 µM; Change in blood glucose [6]: -23%; IC50 [4]: 12 µM; IC50 [5]: 9 µM |
| 18 | 2.9 µM and 8 µM | Nc1nc(N)c2nc(CN3CCN(Cc4ccc(-c5ccccc5)cc4)CC3)nnc2n1 | IC50 [3]: 15 µM; Vd [7]: 3.1 L/kg; bioavailability [8]: 97%; half-life [9]: 1 h; Change in blood glucose [6]: -19%; IC50 [4]: 16 µM; clearance [10]: 104 mL/min/kg; Cmax [11]: 4 µM; IC50 [5]: 5 µM |
| > 100 | 97 µM | Nc1nc(N)c2nc(CN(CCO)CCO)nnc2n1 | – |
| > 100 | 24 µM | Nc1nc(N)c2nc(CN3CCCCC3)nnc2n1 | – |
| 87 | 21 µM | CN1CCN(Cc2nnc3nc(N)nc(N)c3n2)CC1 | – |
| 33 | 3.5 µM | Nc1nc(N)c2nc(CN3CCN(Cc4ccc5ccccc5c4)CC3)nnc2n1 | – |
| > 100 | 24 µM | Nc1nc(N)c2nc(CN3CCOCC3)nnc2n1 | – |

| Structure (SMILES) | IC50 [1] [µM] | IC50 [2] | further results |
| --- | --- | --- | --- |
| Nc1nc(N)c2nc(CN3CCNCC3)nnc2n1 | 91 | 29 µM | – |

Source: ChEMBL document CHEMBL1136184, “Identification of a novel class of orally active pyrimido[5,4-3][1,2,4]triazine-5,7-diamine-based hypoglycemic agents with protein tyrosine phosphatase inhibitory activity” (Bioorg Med Chem Lett, 2003)
